Experiments:
[1] = target: T1, EcG6PDH; glucose-6-phosphate dehydrogenase from Escherichia coli (Escherichia coli, UniProt P0AC53, R50A); test: NAD(P)H formation at […] nm, Michaelis-Menten fit; type: biochemical; conditions: co-substrate NADP+ at 10 times its KM; 25°C
T1 construct: gene zwf; full length; N-terminal 6xHis tag cut by TEV protease (Gly-His left before Met1); plasmid pET-TEV-EcG6PDH from pETG6PDH

[2] = target: T2, EcG6PDH; glucose-6-phosphate dehydrogenase from Escherichia coli (Escherichia coli, UniProt P0AC53, K18A); test: NAD(P)H formation at […] nm, Michaelis-Menten fit; type: biochemical; conditions: co-substrate NADP+ at 10 times its KM; 25°C
T2 construct: gene zwf; full length; N-terminal 6xHis tag cut by TEV protease (Gly-His left before Met1); plasmid pET-TEV-EcG6PDH from pETG6PDH

O=P(O)(O)OC[C@H]1OC(O)[C@H](O)[C@@H](O)[C@@H]1O (some centres unmarked) [G6P]
apparent KM [1]: we determined the effect of the mutations on the apparent kinetic parameters for G6P
apparent KM [2]: we determined the effect of the mutations on the apparent kinetic parameters for G6P

Source: publication PMC4807051, “Determinants of Cofactor Specificity for the Glucose-6-Phosphate Dehydrogenase from Escherichia coli: Simulation, Kinetics and Evolutionary Studies” (PLoS ONE, 2016)
